Test results published in article PMC9468151, “Identification of a binding site on soluble RANKL that can be targeted to inhibit soluble RANK-RANKL interactions and treat osteoporosis” (Nature Communications, 2022).
“And” between values parts separate entries of the source, which are not always exact repeats. Equal values may be shown once.

How the values were obtained:
OVX rats = assay: Rat body weight and organ coefficients determination; type: in vivo; conditions: for body weight (fig. S7d): in g (unit assumed)
Procedure: We dissected all rats after 12 weeks of treatment, then took the main organs like heart, liver, spleen, lung, kidney, and thymus. All the organs were removed the attached adipose and weighted with an electronic balance (Sartorius, Germany). Mice spleen and cervical lymph node were also taken and weighted. Organ index (mg/g) was calculated as the following formula: Organ coefficients=Organweight(mg)/Ratormousetotalweight(g)

[1] = target: T1, binary-RANKL (L-RANKL, mRANKL mimic) (Rattus norvegicus, UniProt Q9ESE2, D175N); assay: Isothermal titration calorimetry (ITC) with binary-RANKL; type: binding; conditions: 25 °C, PBS 0.8% DMSO; read-out: ITC KD with binary-RANKL (printed +mRANKL in Fig. 3a)
T1 construct: (3) mRANKL (sRANKL-GSGS-sRANKL, rat 159-318 aa); His6-sumo (N); made in house; host or cells: Escherichia coli BL21 (DE3)
Procedure: ITC titrations were performed on the MicroCal iTC200 system at 25 °C[55]. Working stocks of compound S3-15 were prepared in 100% DMSO at 50 mM and then diluted to 500 μM at PBS with final DMSO concentration at 0.8% (v/v). PBS with 0.8% DMSO was used as ITC buffer. Purified sRANKL or L-RANKL protein was buffer exchanged into same ITC buffer using a Millipore spin column. S3-15 at 500 μM was loaded into a syringe and protein was loaded into an isothermal calorimeter cell. During titration, S3-15 in the […] was injected (2 μL per injection, 25 injections in total, and 180 s between each injection) regularly from a rotating syringe into protein solution in the isothermal calorimeter cell. The sample cell was stirred at 385 rpm. Reference cell power was set to 5 μcal/s. Control experiments were conducted under the same conditions using buffer solution instead of S3-15. Data were analyzed using a one-site binding model in Origin 7.1 software for ITC version 7.0 (MicroCal). The dissociation constant, KD, was calculated according to equation KD = 1/K. All other parameters, K ([…]), N (varying the stoichiometry), ΔH (enthalpy of the reaction), and ΔG ([…] of the reaction) were determined from the titration data.

NF-κB = assay: Reporter-gene assay for NF-κB; type: cell-based, mouse; design: NF-κB luciferase expression (fig. 6c): unit not given here; conditions: for NF-κB luciferase expression (fig. 6c): sRANKL stimulated; for reporter signal (fig. S3h): three replicates
Procedure: In order to investigate the NF-κB and NFAT transcriptional inhibition activity of selective sRANKL inhibitor, luciferase reporter gene assays were used[57]. RAW 264.7 cells stably transfected with an NF-κB luciferase reporter gene (3κB-Luc-SV40) or NFAT luciferase reporter gene were seeded into 96-well plates at a density of 1.5 × 10^5 or 1.0 × 10^5 cell per well respectively for 24 h. Cells were pretreated with compounds for 1 h, and then stimulated with sRANKL (100 ng/mL), TNF-ɑ (20 ng/mL), […] (50 ng/mL) and LPS (500 ng/mL) for 6 h for NF-κB transcriptional or 24 h for NFAT transcriptional. After treatment both cells were lysed and measured luciferase activity using a Promega Luciferase Assay system (Promega Corporation) by a Varioskan flash Multimode Microplate Reader (Thermo Scientific).

T1 sequence (Q9ESE2 with tags, fused parts or gaps D175N): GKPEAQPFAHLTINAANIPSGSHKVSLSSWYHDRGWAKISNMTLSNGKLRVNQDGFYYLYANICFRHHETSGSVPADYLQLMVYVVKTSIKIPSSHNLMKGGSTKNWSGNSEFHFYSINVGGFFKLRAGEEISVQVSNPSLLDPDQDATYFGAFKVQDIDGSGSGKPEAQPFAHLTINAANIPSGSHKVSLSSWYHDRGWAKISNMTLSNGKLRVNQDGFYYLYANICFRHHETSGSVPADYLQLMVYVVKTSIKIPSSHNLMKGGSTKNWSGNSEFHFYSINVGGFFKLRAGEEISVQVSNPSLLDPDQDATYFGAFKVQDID

For `CC(=O)/C(=N\Nc1ccccc1C(=O)O)C(=O)Nc1ccccn1` [S3-15], the “organ coefficient, Heart” value (OVX rats; individual animals) was 2.652 and 2.903 and 2.602 and 2.757 and 2.485 and 2.813 and 2.658 and 2.708 and 2.583, the “organ coefficient, Kidney” value (OVX rats; individual animals) was 4.969 and 4.261 and 5.124 and 5.036 and 4.8723 and 5.304 and 5.021 and 5.76 and 4.3689 and the “organ coefficient, Liver” value (OVX rats; individual animals) was 19.7988 and 22.7088 and 21.1699 and 21.9894 and 21.577 and 21.8338 and 22.6442 and 26.0414 and 24.0486. The “organ coefficient, Lung” value (OVX rats; individual animals) was 3.321 and 3.475 and 4.3001 and 4.037 and 3.68 and 3.867 and 3.796 and 3.612 and 2.629, the “organ coefficient, Spleen” value (OVX rats; individual animals) was 1.37 and 1.538 and 1.519 and 1.351 and 1.314 and 1.243 and 1.454 and 1.422 and 1.469 and the “organ coefficient, Thymus” value (OVX rats; individual animals) was 0.5247 and 0.4616 and 0.2402 and 1.041 and 0.7463 and 1.3304 and 0.3322 and 0.6497 and 0.411. The “organ coefficient, Uterus” value (OVX rats; individual animals) was 0.5222 and 0.6316 and 3.058 and 1.43 and 0.2827 and 0.6792 and 0.9495 and 1.366 and 2.466, the “body weight (fig. S7d)” value (OVX rats; week 12, individual animals) was 538.3 and 392.8 and 372.2 and 391.4 and 440.6 and 486.3 and 462.8 and 403.8 and 390.8 and the “body weight (fig. S7d)” value (OVX rats; week 16, individual animals) was 559.2 and 407.9 and 470.2 and 373.7 and 449.4 and 404.7 and 487.3 and 429.1 and 417.2. The “body weight (fig. S7d)” value (OVX rats; week 20, individual animals) was 573.2 and 404.5 and 481.5 and 392.5 and 442.6 and 406.7 and 502.6 and 448.2 and 400, the “body weight (fig. S7d)” value (OVX rats; week 24, individual animals) was 583.9 and 392.6 and 476.6 and 387.2 and 432.3 and 403.3 and 500.6 and 445.5 and 415.3 and the Kd [1] was 124 µM. The “luciferase activity (fig. S3g, taken as NF-κB)” value (from here on “luciferase activity”) (NF-κB; IL-1β stimulated + S3-15) was 748200 and 847300 and 792000, the “luciferase activity” value (NF-κB; LPS stimulated + S3-15) was 375600 and 397200 and 396100 and the “luciferase activity” value (NF-κB; TNF-α stimulated + S3-15) was 61380 and 70860 and 74440. The “NF-κB luciferase expression (fig. 6c)” value (NF-κB; S3-15 conc. 0.08) was 32.0377 and 29.8492 and 26.4557, the “NF-κB luciferase expression (fig. 6c)” value (NF-κB; S3-15 conc. 0.28) was 25.9787 and 28.8312 and 30.4836 and the “NF-κB luciferase expression (fig. 6c)” value (NF-κB; S3-15 conc. 0.92) was 26.259 and 24.0852 and 28.8361. The “NF-κB luciferase expression (fig. 6c)” value (NF-κB; S3-15 conc. 3.03) was 25.0885 and 25.1918 and 25.4328, the “NF-κB luciferase expression (fig. 6c)” value (NF-κB; S3-15 conc. 10) was 23.5738 and 23.8492 and 23.6426 and the “NF-κB luciferase expression (fig. 6c)” value (NF-κB; S3-15 conc. 33) was 17.4311 and 18.5918 and 15.8918. For the same compound, the “reporter signal (fig. S3h)” value (NF-κB; stimulus IL-1β) was 348400 and 323800 and 307900, the “reporter signal (fig. S3h)” value (NF-κB; stimulus LPS) was 720100 and 801600 and 826800 and the “reporter signal (fig. S3h)” value (NF-κB; stimulus TNF-α) was 62390 and 81670 and 85200. For the same compound, the “TNF-α, IL-β and LPS activated NF-κB” value (NF-κB; without RANKL) was “cannot affect”.
